This is an account of results in patent publication US20260070890A1, “MODULATORS OF TAU LIQUID-LIQUID PHASE SEPARATION AND METHODS THEREOF” (JAWAHARLAL NEHRU CENTRE FOR ADVANCED SCIENTIFIC RESEARCH, priority 2023, published 2026).

For test [1], the target named is T1, Zn induced tau LLPS condensates (Homo sapiens, UniProt P10636).
T1 construct: the full-length tau plasmid construct was transformed into E. coli, BL21 strain; inferred from the Ni-NTA purification; made in house; host or cells: E. coli BL21
T1 sequence (P10636 1-441 isoform P10636-8): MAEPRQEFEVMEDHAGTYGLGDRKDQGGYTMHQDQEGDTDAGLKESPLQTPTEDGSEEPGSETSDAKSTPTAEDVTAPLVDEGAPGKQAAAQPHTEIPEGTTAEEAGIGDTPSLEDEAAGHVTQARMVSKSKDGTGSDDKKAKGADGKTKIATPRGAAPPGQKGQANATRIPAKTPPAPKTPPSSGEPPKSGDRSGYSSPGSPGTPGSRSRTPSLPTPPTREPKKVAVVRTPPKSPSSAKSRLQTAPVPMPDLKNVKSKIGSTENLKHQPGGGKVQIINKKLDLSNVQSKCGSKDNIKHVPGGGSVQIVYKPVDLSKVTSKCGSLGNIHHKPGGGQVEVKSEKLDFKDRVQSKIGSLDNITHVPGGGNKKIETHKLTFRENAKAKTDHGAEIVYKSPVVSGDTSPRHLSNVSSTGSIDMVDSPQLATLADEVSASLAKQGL
In words: DIC microscopy, dissolution of phase separated tau condensates. The format is biochemical. The settings on record: LLPS induced 10 min with Zn, then compound 15 min; Zn alone 2.26. The protocol:
(§1) Liquid-liquid phase separation (LLPS) of tau was induced by molecular crowding in LLPS buffer (10 mM HEPES, 100 mM NaCl, 10% PEG 4000 and pH 7.4) and Zn.^32 Tau (10 μM) was suspended in LLPS buffer and added Zn (40 μM) incubate for 10 min to induce LLPS. For inhibition studies the tau in LLPS buffer was treated with small molecules (20 μM) before addition of Zn and for control same volume of vehicle (DMSO) was added. Dissolution samples were prepared by induction of LLPS for 10 min using Zn and followed by addition of small molecules and further incubation of 15 min. The samples were drop-cast (10 μL) on clean glass slides, mount with coverslip and immediately imaged in Olympus FLUOVIEW 3000 microscope in differential interface contrast (DIC) mode with 63× oil immersion objective. The images were acquired in multiple areas and planes to confirm the LLPS formation and its modulation by small molecules. Image analysis was performed by using ImageJ software, plotted normalised droplet size against control and analysed by GraphPad Prism.
(§2) The strong binding interaction of small molecules with Zn and tau encouraged us to evaluate them for modulation of Zn indued LLPS of tau. The ability of small molecules to inhibit tau LLPS and formation of droplets were studied by differential interface contrast (DIC) microscopy (FIG. 4). In the presence of Zn, tau readily undergoes LLPS and formed liquid like droplets within 10 min, as evident from the observed fusion droplets (FIG. 4A and inset). […] The inhibitory effect is in the order of 1c followed by 1b and 1a, which agrees with Zn and tau binding ability of small molecules. The LLPS of tau is through transient weak interactions and we believe that the small molecules with strong multivalent interactions with tau and Zn (chelation) potentially dissolve the phase separated droplets. […] The absorption spectra of 1c in the presence of tau and Zn (independently) and together was recorded. […]

A further test concerns the target T2, tau protein (Homo sapiens, UniProt P10636).
T2 construct: the full-length tau plasmid construct was transformed into E. coli, BL21 strain; inferred from the Ni-NTA purification; made in house; host or cells: E. coli BL21
In words: Tau intrinsic fluorescence quenching assay. The conditions noted are these: tau 5 μM, compound 250 nM to 25 μM; for Kd: PBS pH 7.4, read-out: One site binding saturation fit Kd with tau. The class given is binding. On the procedure: Tau protein was expressed and purified from E. coli as per known procedures. Briefly, the full-length tau plasmid construct was transformed into E. coli, BL21 strain and cultured in LB broth containing ampicillin ([…]) and chloramphenicol (50 μM) at 37° C. with continuous shaking at 180 rpm overnight. Then 1% of primary culture was transferred to 1 L of LB broth with antibiotics and incubated until it reaches OD of 0.6. The culture was induced with 1 mM IPTG and further cultured for 4 h. Cells were pelleted by centrifugation (7000 rpm) at 4° C. and resuspended in 50 mM phosphate buffer (0.3 M NaCl, 5 mM imidazole and 1 mM of PMSF, pH 8) and boiled to precipitate unwanted proteins for 10-15 min with intermittent agitation. The supernatant containing tau protein was collected and further purified by Ni-NTA affinity column chromatography. The purified tau protein was quantified by Bradford assay, characterised by SDS-PAGE and stored at −80° C. until further use.
Tau was dissolved in PBS buffer pH 7.4 to make 5 μM and titrated with small molecules from 250 nM to 25 μM concentration and fluorescence spectra was recorded by exiting at 274 nm. The emission spectra were plotted and analysed using Origin (Pro), Version 2022 and GraphPad Prism 9.4.0, fitted with one site binding saturation equation to find Kd. Further fluorescence quenching was fitted with Stern-Volmer equation to determine KSV.
The binding of small molecules with tau protein was monitored using tau intrinsic fluorescence spectral changes. […] The change in fluorescence intensity was fitted with one site binding saturation model to determine the Kd values. […] The KSV values were obtained from the Stern-Volmer equation to further quantify the extent of binding. […] This further emphasized the significance of the skeletal template of the modulators for tau interaction, rather than individual substituted aromatic amino acids.

Test [2] can be described thus: Steady state fluorescence Zn titration (Stern-Volmer fit). The format is binding. The conditions noted are these: for Stern-Volmer binding constant (KSV): Table 1, with Zn, factor 10^4; for Stern-Volmer constant KSV with Zn^2+: compound 20 μM, Zn^2+ 2.5 to 40 μM, emission 530 nm. The protocol:
The metal chelation ability of the compounds were assessed by UV-Visible absorbance and fluorescence spectroscopy by metal titration experiments. The small molecules were dissolved in HEPES buffer to make concentration of 20 μM and the metal ion (Zn^2+) was titrated with increasing concentration from 2.5 μM to 40 μM with 2 min of incubation between each addition. The change in absorbance and fluorescence spectra of compound was recorded and analysed for metal-small molecules interaction. The data was plotted in Origin (Pro), Version 2022 and analysed for determination of dissociation constant. The absorbance values were fitted using Benesi-Hildebrand equation to elucidate the binding constant of metals with small molecules.
where, KB is the binding or association constant, and A0 and Aα represent the peak absorbance of small molecules in the absence and presence of the highest concentration of metal ion (40 μM). The reciprocal of KB was taken as the dissociation constant, Kd. The change in fluorescence was fitted using Stern-Volmer equation to determine KSV: […]
where, F0 and F are the fluorescence intensities of small molecules in the absence and presence of metal ion, respectively. KSV is the Stern-Volmer quenching constant and [Q] is the concentration of quencher/enhancer (metal ion in this case).
Fluorescence spectroscopy is a reliable method to probe host-probe interactions, wherein the change in wavelength or intensity of emission spectrum is indicative of the strength of complexation. […] The classical Stern-Volmer equation was used to quantify the quenching and measure the Stern-Volmer constant, KSV wherein a higher value of KSV implies ability of the compound to form strong complexation with the host (Zn^2+). […] Due to the good binding affinity of the small molecules towards Zn, the designed small molecules were anticipated to chelate and interfere tau-Zn interaction.

Test [3] is described as follows: Isothermal titration calorimetry of small molecule-Zn interaction. The class given is binding. The settings on record: for ΔG of binding to Zn, ITC / ΔH (enthalpy) of binding to Zn, ITC / −TΔS (entropy) of binding to Zn, ITC: 298 K; for ΔG / ΔH / −TΔS: Table 1, with Zn. The protocol: ITC measurements were performed using a Malvern MicroCal-PEAQ ITC machine. Solutions of small molecules (compounds 1a, 1b and 1c) of the present disclosure and ZnCl2 were prepared in 100% DMSO. A revolving syringe was used to inject 26 consecutive 1.5 μL aliquots of Zn^2+ into the small molecules solution to ensure a continual mixing. The ITC cell reference power and temperature were set at […] and 25° C., respectively. To guarantee complete equilibration before the next injection, an interval of 150 s was maintained between subsequent measurements. Obtained isotherms were corrected by the subtraction of heat of dilution (buffer and small molecules). By using a single site binding model in the MicroCal PEAQ-ITC analysis software, nonlinear least squares fitting of the binding isotherms was carried out to estimate the thermodynamic parameters and dissociation constant (Kd).
The thermodynamic parameters of the interactions between small molecules and Zn^2+ were determined by ITC study. ZnCl2 solution in the injection syringe was titrated into compound solution in the sample cell. The heat change was measured and plotted as a function of the molar ratio of small molecules and Zn^2+. […] Right panel depicts the integrated binding isotherms as a function of the binary complex at 298 K. Fitting was obtained from the data points with one set of the binding site model). […] The Kd values determined from ITC validate the results obtained from other binding studies discussed vide supra (lower Kd and higher KSV). Both endothermic and exothermic peaks were observed upon binding of 1c and Zn resulting in a net negative ΔH value, and the data was fitted to exothermic one site binding model. For a reaction to be spontaneous, it must be favored by at least one of the factors, enthalpy or entropy.

The target in another test is T3, Zn induced tau LLPS (Homo sapiens, UniProt P10636).
T3 construct: the full-length tau plasmid construct was transformed into E. coli, BL21 strain; inferred from the Ni-NTA purification; made in house; host or cells: E. coli BL21
T3 sequence (P10636 1-441 isoform P10636-8): as above
The test is described as follows: DIC microscopy, inhibition of Zn induced tau LLPS. The conditions noted are these: tau 10 μM, Zn 40 μM, compound 20 μM added before Zn; Zn alone ~1.3. The format is biochemical. On the procedure: as §1, §2

Another test has as its target T4, tau and Zn (Homo sapiens, UniProt P10636).
T4 construct: the full-length tau plasmid construct was transformed into E. coli, BL21 strain; inferred from the Ni-NTA purification; made in house; host or cells: E. coli BL21
The test is described as follows: UV-Visible spectroscopy, preferential binding among tau and Zn. The conditions noted are these: absorption spectra with tau, Zn and both. The protocol: as §2, with “droplets. To evaluate the reversal effect of small molecules on phase separated droplets, tau LLPS was induced (10 min) and treated with small molecules for 15 min followed by visualization by DIC imaging. […] The droplet size was reduced to less than control in case of 1c treated samples (˜0.66-fold) indicating its ability to inhibit Zn induced tau LLPS. The modulatory effect of 1c prompted to look for its preferential interaction among tau and Zn.” for “droplets.”

T2 sequence (P10636 1-441 isoform P10636-8): as above
T4 sequence (P10636 1-441 isoform P10636-8): as above

Turning to `O=C1N[C@@H](Cc2ccccc2)C(=O)N[C@H]1CCCCN1C(=O)c2cccc3c(N(Cc4ccccn4)Cc4ccccn4)ccc(c23)C1=O` [Compound 1a, 2-(4-((2S,5S)-5-benzyl-3,6-dioxopiperazin-2-yl)butyl)-6-(bis(pyridin-2-ylmethyl)amino)-1H-benzo[de]isoquinoline-1,3(2H)-dione], in test [1], the “droplet size (normalized to control), dissolution of condensates” value was about 1.1 fold. At tau protein, the “Stern-Volmer KSV with tau” value is 190000 M⁻¹ and the Kd is 2880 ± 510 nM. Moreover, in test [2], the “Stern-Volmer binding constant (KSV)” value was determined as 0.06 × × 10^4 and the “Stern-Volmer constant KSV with Zn^2+” value is on record as 0.06×10^4. In addition, the “ΔG of binding to Zn, ITC” value in test [3] was -3.48 kcal/mol. Besides, in test [3] (unit not given), the “ΔH (enthalpy) of binding to Zn, ITC” value is −13.1±0.13; the “−TΔS (entropy) of binding to Zn, ITC” value was determined as 9.59; the ΔG is −3.48; the ΔH was −13.1. The “−TΔS” value in test [3] (unit not given) was determined as 9.59. In addition, the “droplet size (normalized to control), inhibition of LLPS” value at Zn induced tau LLPS was about 1.19 fold.
On to `O=C1N[C@@H](Cc2ccc(O)cc2)C(=O)N[C@H]1CCCCN1C(=O)c2cccc3c(N(Cc4ccccn4)Cc4ccccn4)ccc(c23)C1=O` [Compound 1b, 6-(bis(pyridin-2-ylmethyl)amino)-2-(4-((2S,5S)-5-(4-hydroxybenzyl)-3,6-dioxopiperazin-2-yl)butyl)-1H-benzo[de]isoquinoline-1,3(2H)-dione], for which the “droplet size (normalized to control), dissolution of condensates” value in test [1] is recorded as about 1.6 fold. For the same compound, on tau protein, the “Stern-Volmer KSV with tau” value is 160000 M⁻¹ and the Kd was found to be 1740 ± 170 nM. In test [2], the “Stern-Volmer binding constant (KSV)” value was 1.7 × × 10^4 and the “Stern-Volmer constant KSV with Zn^2+” value is given as 1.7×10^4. Also, in test [3], the “ΔG of binding to Zn, ITC” value was -5.78 kcal/mol; the “ΔH (enthalpy) of binding to Zn, ITC” value was -0.551 ± 0.056 kcal/mol; the “−TΔS (entropy) of binding to Zn, ITC” value was -5.23 kcal/mol. Besides, in test [3] (unit not given), the ΔG is given as −5.78, the ΔH is given as −0.551 and the “−TΔS” value was −5.23. In addition, the “droplet size (normalized to control), inhibition of LLPS” value at Zn induced tau LLPS is reported as about 1.12 fold.
Turning to `O=C1N[C@@H](Cc2c[nH]c3ccccc23)C(=O)N[C@H]1CCCCN1C(=O)c2cccc3c(N(Cc4ccccn4)Cc4ccccn4)ccc(c23)C1=O` [Compound 1c, 2-(4-((2S,5S)-5-((1H-indol-3-yl)methyl)-3,6-dioxopiperazin-2-yl)butyl)-6-(bis(pyridin-2-ylmethyl)amino)-1H-benzo[de]isoquinoline-1,3(2H)-dione], the “droplet size (normalized to control), dissolution of condensates” value in test [1] is reported as about 0.66 fold. At tau protein, the “Stern-Volmer KSV with tau” value was 150000 M⁻¹ and the Kd was found to be 3950 ± 320 nM. In addition, the “preferential interaction among tau and Zn” value at tau and Zn is “preferential interaction of 1c with tau over Zn”. For the same compound, in test [2], the “Stern-Volmer binding constant (KSV)” value is on record as 1.7 × × 10^4 and the “Stern-Volmer constant KSV with Zn^2+” value is given as 1.7×10^4. Also, in test [3], the “ΔG of binding to Zn, ITC” value is -6.45 kcal/mol; the “ΔH (enthalpy) of binding to Zn, ITC” value is -0.698 ± 0.223 kcal/mol; the “−TΔS (entropy) of binding to Zn, ITC” value is -5.75 kcal/mol. Further, in test [3] (unit not given), the ΔG was −6.45, the ΔH is on record as −0.693 and the “−TΔS” value is on record as −5.75. The “droplet size (normalized to control), inhibition of LLPS” value on Zn induced tau LLPS is recorded as about 1 fold.
